Results reported in patent US9150555B2, “Amide derivative and use thereof” (Mitsubishi Tanabe Pharma Corporation, priority 2010, dated 2015).
Counter-ions that a name gives are not always drawn.

What was measured:
[1] = test system: IL-17 production of mouse spleen cells stimulated by rm-IL-23; experiment: Production of IL-17 induced when mouse spleen cells were stimulated by recombinant mouse interleukin-23 (rm-IL-23); type: cell-based; details: inhibition of IL-17 production, DBA/1J mouse spleen cells, rm-IL-23 1 nmol/L, ELISA
Description: Effect on Production of IL-17 Induced when Mouse Spleen Cells were Stimulated by Recombinant Mouse Interleukin-23 (rm-IL-23)
An RPMI1640 (Sigma-Aldrich) was used as a medium, to which penicillin G potassium (50 units/mL; Gibco), streptomycin (50 μg/mL; Gibco) and 2-mercaptoethanol (50 μmol/l; Sigma-Aldrich) were added, and then 10% of fetal calf serum (FCS; Cell Culture Technology) inactivated at 56° C. for 30 minutes was added and used in the Test. The test compound was dissolved in dimethylsulfoxide and diluted with 10% FCS-containing RPMI1640 medium to a desired concentration and used in the test. The spleens were aseptically taken out from 6-7 week-old male DBA/1J mice (Charles River Japan, Inc.) and a single cell suspension of spleen cells was prepared and hemolyzed by hypotonic treatment with a mixture of 0.83% aqueous solution of ammonium chloride and Tris-HCl buffer of pH 7.65 (9:1). A cell suspension prepared by 10% FCS-containing RPMI1640 medium was added to flat-bottomed 96 well microtestplate at 2×10^5 cells/well. Test compounds and rm-IL-23 (R&D systems) were diluted with a medium to 1 to 1,000 nmol/L, and 1 nmol/L of the final concentration respectively, which were added and cultured at 37° C., 5% carbon dioxide and 95% air for 72 hours. After completion of the culture, culture supernatant was sampled and an amount of IL-17 production was determined by ELISA method. After sampling the supernatant, WST-8 (Seikagaku Corporation) was added at 10 μl/well and cultured at 37° C., 5% carbon dioxide and 95% air for 4 hours. Then, absorbance (O.D.: Optical Density) at 450 nm was measured by a microplate reader and the value was adopted as an index of cell survivability. An inhibition rate (%) was calculated according to the following formula on the basis of an average of an amount of IL-17 production and a O.D. values of the well containing a test compound of each concentration.
Based on the dose-response curve obtained by plotting the inhibition rate in the longitudinal axis and concentration in the horizontal axis, the concentration of the compound which inhibits the level to 50% of the value of the control group (IC50; nmol/L) was determined by linear regression analysis. The results was shown in the next Table 1

hERG = hERG (Homo sapiens, UniProt Q12809); experiment: Effects on hERG current (whole-cell clamping); details: human, HEK 293 cells that express hERG
Description: Dimethylsulfoxide was used as a vehicle and hERG-expressed HEK 293 cells (Cytomyx) were used as test cells. Test cells were once cultured and subdivided and were stored under frozen condition in liquid nitrogen. In the study, thawed and subcultured cells having less than 30 of the passage number were used. Test cells were cultured in a carbon dioxide incubator BNP-110M (Tabai Espec Corp.) at 37±1° C., and 5.0±0.5% of carbon dioxide concentration. The component of culture medium was MEM (Minimum Essential Medium) supplemented with 10 vol % fetal bovine serum (non-activated), 1 mmol/L sodium pyruvate, 0.1 mmol/L non-essential amino acid, 100 U/mL penicillin with 100 μg/mL streptomycin. To select gene-expressing cells, 400 μg/mL G418 Sulphate (Invitrogen) was added to the culture medium. In the dishes for the measurement, the medium which not contain G418 Sulphate (Invitrogen) was used.
As to seeding of cells for measurement, subcultured cells which became confluent were treated with 0.25% trypsin-solution containing 1 mmol/L EDTA (Invitrogen) to remove from the plate, and seeded on sterilized collagen-coated cover glass (Iwaki, AGC Techno Glass Co., LTD). The medium was exchanged appropriately, including the day of measurement.
A perfusion method was applied to the experiment. Test cells were perfused (perfusion speed: approximately 4 mL/min) with an external solution containing specified concentrations of test compounds (component of external solution: 137 mmol/L of sodium chloride, 4 mmol/L of potassium chloride, 10 mmol/L of HEPES, 1.8 mmol/L of calcium chloride, 1 mmol/L of magnesium chloride and 10 mmol/L of glucose; adjusted to pH 7.4±0.1 with sodium hydroxide aqueous solution). […] When effects were observed, the perfusion was continued until the maximum response was observed. […] The data were obtained from one experiment or more and the cells which were incubated in a carbon dioxide incubator after seeding and attached to cover slips were used for the measurement.
A whole-cell clamping method was applied to the measurement. Test cells were perfused (perfusion speed: approximately 4 mL/min) with an external solution (component of external solution: 137 mmol/L of sodium chloride, 4 mmol/L of potassium chloride, 10 mmol/L of HEPES, 1.8 mmol/L of calcium chloride, 1 mmol/L of magnesium chloride and 10 mmol/L of glucose; adjusted to pH 7.4±0.1 with sodium hydroxide aqueous solution). A glass electrode with a resistance of 2 to 6 MΩ, filled with an internal solution (component: 130 mmol/L of potassium chloride, 1 mmol/L of magnesium chloride, 5 mmol/L of EGTA, 10 mmol/L of HEPES and 5 mmol/L of ATP adjusted to pH 7.2±0.1 with sodium hydroxide aqueous solution) was used. After rupturing cell membrane with glass electrode, the cell membrane voltage was held at −80 mV via a patch clamp software (pCLAMP9 [Axon CNS], Molecular Devices) using patch clamp amplifier (EPC8, HEKA). […] Test cells and the cell-attached cover glass were changed every treatment. Temperature of the fluid in a perfusion fluid tank was 24±2° C.
The obtained current was recorded on a computer via a patch clamp amplifier using patch clamp software. An evaluation item was a tail peak current.
A tail peak current was analyzed using analyzing software (Clampfit 9 [Axon CNS], MolecularDevices). Each 2 pulses of before and after perfusion of test compound for each concentration was analyzed, and a peak values of the tail current on the pulses were determined. The inhibition ratio was determined according to the following equation:

[2] = pH 7.4, hERG inhibition rate (%) (1 μM), 1 μM, tail peak current, hERG-expressed HEK 293 cells

hERG, sequence (Q12809 whole entry): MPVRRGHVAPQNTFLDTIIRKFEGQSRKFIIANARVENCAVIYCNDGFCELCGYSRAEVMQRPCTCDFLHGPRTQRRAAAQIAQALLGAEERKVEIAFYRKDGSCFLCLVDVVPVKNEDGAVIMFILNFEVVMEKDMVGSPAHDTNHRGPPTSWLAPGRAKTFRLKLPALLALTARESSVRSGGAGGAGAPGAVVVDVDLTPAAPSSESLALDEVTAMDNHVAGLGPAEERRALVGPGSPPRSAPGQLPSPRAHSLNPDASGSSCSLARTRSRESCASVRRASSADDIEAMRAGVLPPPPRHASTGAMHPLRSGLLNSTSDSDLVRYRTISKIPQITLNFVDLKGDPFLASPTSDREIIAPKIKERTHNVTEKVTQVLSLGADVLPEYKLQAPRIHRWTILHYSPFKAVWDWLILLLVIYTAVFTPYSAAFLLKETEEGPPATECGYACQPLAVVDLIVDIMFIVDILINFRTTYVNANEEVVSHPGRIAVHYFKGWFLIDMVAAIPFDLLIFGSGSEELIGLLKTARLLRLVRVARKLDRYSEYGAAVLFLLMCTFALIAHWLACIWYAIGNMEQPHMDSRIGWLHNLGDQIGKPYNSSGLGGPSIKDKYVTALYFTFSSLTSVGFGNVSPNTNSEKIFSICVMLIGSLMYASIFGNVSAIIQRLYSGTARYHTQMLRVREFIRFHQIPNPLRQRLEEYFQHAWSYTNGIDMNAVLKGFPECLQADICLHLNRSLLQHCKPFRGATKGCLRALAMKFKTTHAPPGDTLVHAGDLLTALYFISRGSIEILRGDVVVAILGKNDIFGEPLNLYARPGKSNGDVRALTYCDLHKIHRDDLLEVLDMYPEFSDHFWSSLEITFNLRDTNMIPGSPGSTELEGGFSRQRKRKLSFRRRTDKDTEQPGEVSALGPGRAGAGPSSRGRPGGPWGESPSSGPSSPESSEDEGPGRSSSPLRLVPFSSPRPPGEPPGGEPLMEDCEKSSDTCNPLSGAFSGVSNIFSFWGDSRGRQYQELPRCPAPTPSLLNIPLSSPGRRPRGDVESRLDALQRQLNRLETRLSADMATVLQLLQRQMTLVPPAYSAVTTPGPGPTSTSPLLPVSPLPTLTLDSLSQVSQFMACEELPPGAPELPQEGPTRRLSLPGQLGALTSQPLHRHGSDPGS

SMILES	IC50 ([1]; Mus musculus, 72 h) [nM]	inhibition at 1 µM (hERG; [2]) [%]	IC50 ([1]; 72 hours) [nM]	inhibition at 1 µM (hERG; pH 7.4) [%]
Cc1c(C(=O)Nc2ccc(C3CCC(=O)CC3)nc2)cnn1-c1ccc(F)cc1F [Example E21]	180	8.3	–	–
Cc1ccc(-n2ncc(C(=O)Nc3ccc(C4CCC(=O)CC4)nc3)c2C)cc1 [Example E22]	328	2.7	–	–
Cc1cc(NC(=O)c2cnn(-c3ccc(C(F)(F)F)cc3)c2C)cnc1C1=CCOCC1 [Example E30, N-[6-(3,6-Dihydro-2H-pyran-4-yl)-5-methylpyridin-3-yl]-5-methyl-1-[4-(trifluoromethyl)-phenyl]-1H-pyrazole-4-carboxamide]	149	10.7	–	–
Cc1c(C(=O)Nc2ccc(C3(C#N)CCC(=O)CC3)nc2)cnn1-c1ccc(C(F)(F)F)cn1 [Example F2, N-[6-(1-Cyano-4-oxocyclohexyl)pyridin-3-yl]-5-methyl-1-[5-(trifluoromethyl)pyridin-2-yl]-1H-pyrazole-4-carboxamide hydrochloride]	53.4	22.4	–	–
Cc1c(C(=O)Nc2ccc(C3(C#N)CCC(=O)CC3)nc2)cnn1-c1ccc(F)cc1 [Example F6]	107	6.8	–	–
Cc1c(C(=O)Nc2ccc(C3(C#N)CCC(=O)CC3)nc2)cnn1-c1ccc(Cl)c(Cl)c1 [Example F8]	61.6	15.4	–	–
Cc1c(C(=O)Nc2ccc(C3(C#N)CCC(=O)CC3)nc2)cnn1-c1ccc(F)c(F)c1 [Example F10]	–	–	278	8
Cc1c(C(=O)Nc2ccc(C3CCC(=O)CC3)nc2)cnn1-c1ccc(C(C)(C)C)cc1 [Example F26]	321	8.1	–	–
Cc1cc(NC(=O)c2cnn(-c3ccc(C(F)(F)F)cn3)c2C)cnc1C1CCC(=O)CC1 [Example F32]	146	17.9	–	–
Cc1c(C(=O)Nc2ccc([C@H]3CC[C@H](O)CC3)nc2)cnn1-c1ccc(C(C)(C)C)cc1 [Example G4, trans-1-(4-tert-Butylphenyl)-N-[6-(4-hydroxycyclohexyl)pyridin-3-yl]-5-methyl-1H-pyrazole-4-carboxamide]	48	5.2	–	–
Cc1cc(NC(=O)c2cnn(-c3ccc(C(F)(F)F)cc3)c2C)cnc1C1=CCC(O)CC1 (centres unmarked) [Example G5, N-[6-(4-Hydroxycyclohex-1-en-1-yl)-5-methylpyridin-3-yl]-5-methyl-1-[4-(trifluoromethyl)-phenyl]-1H-pyrazole-4-carboxamide]	86.6	11.7	–	–
Cc1c(C(=O)Nc2ccc([C@]3(C#N)CC[C@@H](O)CC3)nc2)cnn1-c1ccc(Cl)c(Cl)c1 [Example G8]	56.4	1.9	–	–
Cc1c(C(=O)Nc2ccc(C3CCC(O)CC3)nc2)cnn1-c1ccc(Cl)cc1 (centres unmarked) [Example G9]	145	0.8	–	–
Cc1c(C(=O)Nc2ccc(C3CCC(O)CC3)nc2)cnn1-c1ccc(C(F)(F)F)cc1 (centres unmarked) [Example G10]	118	5.1	–	–
Cc1c(C(=O)Nc2ccc([C@]3(C#N)CC[C@@H](O)CC3)nc2)cnn1-c1ccc(OC(F)(F)F)cc1 [Example G11]	84.6	12.2	–	–
Cc1c(C(=O)Nc2ccc([C@]3(C#N)CC[C@@H](O)CC3)nc2)cnn1-c1ccc(F)c(F)c1 [Example G12]	260	6.5	–	–
Cc1cc(NC(=O)c2cnn(-c3ncc(C(F)(F)F)cc3F)c2C)cnc1[C@H]1CC[C@H](O)CC1 [Example G29, trans-1-[3-Fluoro-5-(trifluoromethyl)pyridin-2-yl]-N-[6-(1-hydroxycyclohexan-4-yl)-5-methylpyridin-3-yl]-5-methyl-1H-pyrazole-4-carboxamide]	133	6.7	–	–

SMILES	IC50 ([1]; Mus musculus, 72 h) [nM]	inhibition at 1 µM (hERG; [2]) [%]	IC50 ([1]; 72 hours) [nM]	inhibition at 1 µM (hERG; pH 7.4) [%]
COc1cc(C(F)(F)F)cnc1-n1ncc(C(=O)Nc2cnc([C@H]3CC[C@H](O)CC3)c(C)c2)c1C [Example G30]	147	3.2	–	–
Cc1cc(NC(=O)c2cnn(-c3ncc(C(F)(F)F)cc3Cl)c2C)cnc1[C@H]1CC[C@H](O)CC1 [Example G32, trans-1-[3-Chloro-5-(trifluoromethyl)pyridin-2-yl]-N-[6-(1-hydroxycyclohexan-4-yl)-5-methylpyridin-3-yl]-5-methyl-1H-pyrazole-4-carboxamide]	105	7.9	–	–
Cc1cc(NC(=O)c2cnn(-c3ccc(C(F)(F)F)cn3)c2C)cnc1[C@H]1CC[C@H](O)CC1 [Example J7, trans-N-[6-(4-Hydroxycyclohexyl)-5-methylpyridin-3-yl]-5-methyl-1-[5-(trifluoromethyl)-pyridin-2-yl]-1H-pyrazole-4-carboxamide]	67.5	7.9	–	–
Cc1c(C(=O)Nc2ccc([C@H]3CC[C@H](O)CC3)nc2)cnn1-c1ccc(OCCOC(C)(C)C)cc1 [Example J8]	53	11.3	–	–
Cc1cc(NC(=O)c2cnn(-c3ccc(C4CC4)cn3)c2C)cnc1[C@H]1CC[C@H](O)CC1 [Example J12]	149	10.8	–	–
Cc1c(C(=O)Nc2ccc([C@]3(C#N)CC[C@@H](O)CC3)nc2)cnn1-c1ccc(C2CC2)cn1 [Example J13]	242	10.7	–	–
Cc1c(C(=O)Nc2ccc([C@]3(C#N)CC[C@@H](O)CC3)nc2)cnn1-c1ncc(C(F)(F)F)cc1Cl [Example J15]	438	8.2	–	–
Cc1c(C(=O)Nc2ccc([C@]3(C#N)CC[C@@H](O)CC3)nc2)cnn1-c1ncc(C(F)(F)F)cc1F [Example J16]	305	13.5	–	–
Cc1c(C(=O)Nc2ccc([C@]3(C#N)CC[C@@H](O)CC3)nc2)cnn1-c1ncc(C2CC2)cc1F [Example J17]	275	2.4	–	–
Cc1c(C(=O)Nc2ccc([C@]3(C#N)CC[C@@H](O)CC3)nc2)cnn1-c1ccc(C(C)C)cc1 [Example J18]	137	17.8	–	–
Cc1c(C(=O)Nc2ccc([C@]3(C#N)CC[C@@H](O)CC3)nc2)cnn1-c1ccc(C2CC2)cc1 [Example J19]	132	18.5	–	–
CCc1ccc(-n2ncc(C(=O)Nc3ccc([C@]4(C#N)CC[C@@H](O)CC4)nc3)c2C)cc1 [Example J20]	90	18.1	–	–
Cc1c(C(=O)Nc2ccc(C3(C(=O)O)CCCCC3)nc2)cnn1-c1ccc(Cl)cc1 [Example K4, 1-[5-({[1-(4-Chlorophenyl)-5-methyl-1H-pyrazol-4-yl]carbonyl}amino)pyridin-2-yl]-cyclohexanecarboxylic acid]	127	17.2	–	–
Cc1c(C(=O)Nc2ccc(C3(C#N)CCC(O)CC3)nc2)cnn1-c1ccc(C(F)(F)F)cn1 (centres unmarked) [Example K6, N-[6-(r-1-Cyano-c-4-hydroxycyclohexyl)pyridin-3-yl]-5-methyl-1-[5-(trifluoromethyl)pyridin-2-yl]-1H-pyrazole-4-carboxamide]	148	40	–	–
Cc1ccc(-n2ncc(C(=O)Nc3ccc([C@]4(C#N)CC[C@@H](OCCO)CC4)nc3)c2C)cc1 [Example K19, N-{6-[r-1-cyano-c-4-(2-hydroxyethoxy)cyclohexyl]pyridin-3-yl}-5-methyl-1-(4-methylphenyl)-1H-pyrazole-4-carboxamide]	148	2.4	–	–
CNC1CC=C(c2ncc(NC(=O)c3cnn(-c4ccc(C(F)(F)F)cn4)c3C)cc2C)CC1 (centres unmarked) [Example K26, 5-Methyl-N-[5-methyl-6-(4-methylaminocyclohex-1-en-1-yl)pyridin-3-yl]-1-[5-(trifluoromethyl)pyridin-2-yl]-1H-pyrazole-4-carboxamide]	376	14.3	–	–
CC(=O)N(C)C1CC=C(c2ncc(NC(=O)c3cnn(-c4ccc(C(F)(F)F)cn4)c3C)cc2C)CC1 (centres unmarked) [Example K27, N-{6-[4-(N-Acetyl-N-methylamino)cyclohex-1-en-1-yl]-5-methylpyridin-3-yl}-5-methyl-1-[5-(trifluoromethyl)pyridin-2-yl]-1H-pyrazole-4-carboxamide]	242	9.7	–	–
